One series concerns the target T1, hCXCR2 (Homo sapiens, UniProt P25025).
T1 construct: purchased Biosignal; host or cells: CHO cells (membranes)
T1 sequence (P25025 1-360): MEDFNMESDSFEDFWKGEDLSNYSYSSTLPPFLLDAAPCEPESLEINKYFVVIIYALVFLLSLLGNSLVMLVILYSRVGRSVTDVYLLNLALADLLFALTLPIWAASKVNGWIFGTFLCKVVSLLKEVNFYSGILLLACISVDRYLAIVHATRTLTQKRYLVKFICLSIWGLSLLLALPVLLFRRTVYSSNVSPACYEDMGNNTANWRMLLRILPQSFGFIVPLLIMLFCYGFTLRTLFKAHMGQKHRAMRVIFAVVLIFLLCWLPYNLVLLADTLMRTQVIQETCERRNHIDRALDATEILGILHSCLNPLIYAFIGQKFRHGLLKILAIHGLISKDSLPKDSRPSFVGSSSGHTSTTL
The series can be described thus: CXCR2 SPA Assay ([125I]-IL-8 receptor binding). As to conditions: hCXCR2-CHO overexpressing membranes, [125I]-IL-8 0.1 nM. The method, then: For each well of a 96 well plate, a reaction mixture of 2.5 μg hCXCR2-CHO overexpressing membranes (Biosignal) and 200 μg/well WGA-SPA beads (Amersham) in 160 μl was prepared in CXCR2 assay buffer (25 mM HEPES, pH 7.4, 2 mM CaCl2, 1 mM MgCl2). A 1 nM stock of ligand, [125I]-IL-8 (NEN), was prepared in the CXCR2 assay buffer. 10× stock solutions of test compounds were prepared in DMSO (Sigma). The above solutions were added to a 96-well assay plate (PerkinElmer or Corning) as follows: 20 μl test compound or DMSO, 160 μl of reaction mixture, 20 μl of ligand stock (Final [Ligand]=0.1 nM). The assay plates were shaken for 5 minutes on a plate shaker, then incubated for 12 hours before cpm/well were determined in Microbeta Trilux counter (PerkinElmer).

Another series addresses T2, hCXCR1 (Homo sapiens, UniProt P25024).
T2 construct: purchased Biosignal; host or cells: CHO cells (membranes)
T2 sequence (P25024 1-350): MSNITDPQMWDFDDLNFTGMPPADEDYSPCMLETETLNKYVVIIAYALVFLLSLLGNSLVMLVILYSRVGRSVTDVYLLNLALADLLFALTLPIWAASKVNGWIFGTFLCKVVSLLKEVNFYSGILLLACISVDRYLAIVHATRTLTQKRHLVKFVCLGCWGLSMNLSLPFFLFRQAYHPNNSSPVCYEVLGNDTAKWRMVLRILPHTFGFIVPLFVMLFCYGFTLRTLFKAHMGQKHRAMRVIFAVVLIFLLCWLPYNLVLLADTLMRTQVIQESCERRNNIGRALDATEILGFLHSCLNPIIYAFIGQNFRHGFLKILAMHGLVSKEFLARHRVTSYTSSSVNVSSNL
The series can be described thus: CXCR1 SPA Assay ([125I]-IL-8 receptor binding). As to conditions: hCXCR1-CHO overexpressing membranes, [125I]-IL-8 0.05 nM. The method, then:
For each well of a 96 well plate, a reaction mixture of 2.2 μg hCXCR1-CHO overexpressing membranes (Biosignal) and 100 μg/well WGA-SPA beads (Amersham) in 160 μl was prepared in CXCR1 assay buffer (25 mM HEPES, pH 7.8, 2 mM CaCl2, 1 mM MgCl2, 125 mM NaCl, 0.1% BSA) (Sigma). A 0.5 nM stock of ligand, [125I]-IL-8 (NEN) was prepared in the CXCR1 assay buffer. 10× stock solutions of test compounds were prepared in 10% DMSO (Sigma). The above solutions were added to a 96-well assay plate (PerkinElmer) as follows: 20 μl test compound or DMSO, 160 μl of reaction mixture, 20 μl of ligand stock (Final [Ligand]=0.05 nM). The assay plates were shaken for 5 minutes on plate shaker, then incubated for 12 hours before cpm/well were determined in Microbeta Trilux counter (PerkinElmer). % Inhibition of Total binding-NSB (250 nM IL-8) was determined for IC50 values.

pKi: −log10 of the molar value. “And” between values parts separate entries of the source, which are not always exact repeats. Equal entries are not always repeated.

Compound `CCNS(=O)(=O)c1scc(NC(=O)Nc2cccc(Cl)c2Cl)c1O` [Example 20.7] gave a pKi at hCXCR2 of 7.04 to 8.30.
For the compound `CN(C(C)(C)C)S(=O)(=O)c1scc(NC(=O)Nc2cccc(Cl)c2Cl)c1O` [Example 20.14], the pKi at hCXCR1 was 5.72 to 6.19 and 6.19.
For `CN(C1CCC1)S(=O)(=O)c1scc(NC(=O)Nc2cccc(Cl)c2Cl)c1O` [Example 20.17], the pKi on hCXCR2 is 7.04 to 8.30.
Same read-out and setting: in the case of `CCNS(=O)(=O)c1scc(NC(=O)Nc2ccccc2Br)c1O` [Example 20.10] it was 7.04 to 8.30.
Still for that read-out and setting: under `CCCN(C)S(=O)(=O)c1scc(NC(=O)Nc2cccc(Cl)c2Cl)c1O` [Example 21.1] stands 7.04 to 8.30 and 8.00 to 8.30.
For `O=C(Nc1csc(S(=O)(=O)N2CCCC2)c1O)Nc1cccc(Cl)c1Cl` [Example 20.18], the values for the pKi at hCXCR2 and at hCXCR1 were 7.04 to 8.30 and 5.72 to 6.19, respectively.
Take `CN(C1CC1)S(=O)(=O)c1scc(NC(=O)Nc2cccc(Cl)c2Cl)c1O` [Example 20.16]: the pKi on hCXCR2 is 7.04 to 8.30 and 8.00 to 8.30 and 8.22; at hCXCR1, 5.72 to 6.19.
Take `O=C(Nc1csc(S(=O)(=O)NC2CC2)c1O)Nc1cccc(Cl)c1Cl` [Example 21.10]: the pKi was 7.04 to 8.30 at hCXCR2 and 5.72 to 6.19 on hCXCR1.
For the compound `CNS(=O)(=O)c1scc(NC(=O)Nc2cccc(Cl)c2Cl)c1O` [Example 21.14], the pKi at hCXCR2 is 7.04 to 8.30 and 8.00 to 8.30; at hCXCR1 it was 5.72 to 6.19.
On to `CCN(CC)S(=O)(=O)c1scc(NC(=O)Nc2cccc(Cl)c2Cl)c1O` [Example 20.3], for which the values for the pKi at hCXCR2 and at hCXCR1 were 7.04 to 8.30 and 5.72 to 6.19, respectively.
The like results for `O=C(Nc1ccccc1Br)Nc1csc(S(=O)(=O)N2CCCC2)c1O` [Example 20.19] were, in that order, 7.04 to 8.30 and 5.72 to 6.19.
For the compound `CN(C)S(=O)(=O)c1scc(NC(=O)Nc2ccccc2Br)c1O` [Example 20.1], the pKi on hCXCR2 was 7.04 to 8.30.
As for `CC(C)NS(=O)(=O)c1scc(NC(=O)Nc2cccc(Cl)c2Cl)c1O` [Example 20.11], at hCXCR1, the pKi was 5.72 to 6.19.
For `CCN(C)S(=O)(=O)c1scc(NC(=S)Nc2cccc(Cl)c2Cl)c1O` [Example 22], the melting point was in the range of 112 to 115 °C. Besides, at hCXCR2, the pKi is 7.04 to 8.30.
`CCN(C)S(=O)(=O)c1scc(NC(=O)Nc2cccc(Cl)c2Cl)c1O` [Example 21] gave a pKi at hCXCR2 of 7.04 to 8.30.
On the same count and under the same terms, under `CC(C)[C@@H](CO)NS(=O)(=O)c1scc(NC(=O)Nc2cccc(Cl)c2Cl)c1O` [Example 21.12] stands 7.04 to 8.30.
In the case of `O=C(Nc1csc(S(=O)(=O)N2CCC[C@@H]2CO)c1O)Nc1cccc(Cl)c1Cl` [Example 21.6], the pKi on hCXCR2 is 7.04 to 8.30 and 8.00 to 8.30; at hCXCR1 it was 5.72 to 6.19.
In turn, `CN(C)S(=O)(=O)c1scc(NC(=O)Nc2cccc(Cl)c2Cl)c1O` [Example 20] gave a pKi at hCXCR2 of 7.04 to 8.30.
Regarding `O=C(Nc1csc(S(=O)(=O)N2CCC[C@H]2CO)c1O)Nc1cccc(Cl)c1Cl` [Example 21.7], the pKi on hCXCR2 was 7.04 to 8.30 and 8.00 to 8.30; at hCXCR1 it was 5.72 to 6.19.
For the compound `CCN(C(C)(C)C)S(=O)(=O)c1scc(NC(=O)Nc2cccc(Cl)c2Cl)c1O` [Example 20.15], the pKi at hCXCR2 is 7.04 to 8.30; at hCXCR1, 5.72 to 6.19.
On hCXCR2, `NS(=O)(=O)c1scc(NC(=O)Nc2cccc(Cl)c2Cl)c1O` [Example 20.21] had a pKi of 7.04 to 8.30.
The same measure, in the same setting: in the case of `CC(C)CN(C)S(=O)(=O)c1scc(NC(=O)Nc2cccc(Cl)c2Cl)c1O` [Example 21.3] it was 7.04 to 8.30.
For the compound `CCN1CCN(S(=O)(=O)c2scc(NC(=O)Nc3cccc(Cl)c3Cl)c2O)CC1` [Example 21.5], the pKi on hCXCR2 was 7.04 to 8.30; on hCXCR1, 5.72 to 6.19.
For the compound `CCCCN(C)S(=O)(=O)c1scc(NC(=O)Nc2cccc(Cl)c2Cl)c1O` [Example 21.2], the pKi on hCXCR2 was 7.04 to 8.30.
Same read-out and setting: in the case of `O=C(Nc1csc(S(=O)(=O)NC2(CO)CCCC2)c1O)Nc1cccc(Cl)c1Cl` [Example 21.8] it was 7.04 to 8.30; in that of `CC(C)NS(=O)(=O)c1scc(NC(=O)Nc2ccccc2Br)c1O` [Example 20.12], 7.04 to 8.30.
`CC(C)N(C)S(=O)(=O)c1scc(NC(=O)Nc2cccc(Cl)c2Cl)c1O` [Example 21.4]: the pKi on hCXCR2 is 7.04 to 8.30 and 8.00 to 8.30.
For the compound `CC(C)(C)NS(=O)(=O)c1scc(NC(=O)Nc2cccc(Cl)c2Cl)c1O` [Example 20.13], on hCXCR1, the pKi is 5.72 to 6.19.

In general, pKi refers to −log10 of the Ki, conventionally taken in molar units. Low readings indicate a large Ki, high ones a small Ki. The melting point is the temperature, or range, at which the solid turns liquid.
